Laboratory results taken from patent US20250041307A1, “Uses of Bicyclic Compounds for the Treatment of Diseases” (Athira Pharma, Inc., priority 2021, published 2025).

Tests used:
[1] = system: HGF/MET system; assay: Phospho-MET ELISA; format: cell-based; conditions: HEK293 cells; with 1 ng/mL recombinant HGF; 15 minutes; augmentation of MET phosphorylation (pMET ELISA)
How it was run: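 Serum-starved (≥8 h) HEK293 cells treated with compound plus 1 ng/mL recombinant HGF for 15 min at 37° C in triplicate, then lysed in RIPA. Equal protein (50–100 μg, BCA-normalized) run in pMET sandwich ELISA, A450 read. Responses scaled 1–10 between 1 ng/mL and 10 ng/mL HGF means, using peak efficacy.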

[2] = system: MDCK cells; assay: Cell scattering behavior assay; format: cell-based; design: key: − indicates that the compound failed to significantly promote cell scattering behavior; + indicates maximum potency at or above 100 nM; ++ indicates maximum potency at or above 10 nM; +++ indicates maximum potency at or above 1 nM; ++++ indicates maximum potency at or above 0.1 nM; conditions: with 5 ng/mL HGF, 24 hours, normalized particle count compared to HGF treatment alone
How it was run: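 MDCK cells starved 2 h in serum-free DMEM, then treated 24 h at 37 °C with compounds plus 5 ng/mL HGF. Cells were ethanol-fixed, WGA488-stained and imaged. Scattering was scored as particle count normalized to stained area, with activity taken as a statistical increase in normalized particle count over HGF alone.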

[3] = system: hepatocyte (HepG2) cell cultures; assay: Cytotoxicity assay (LDH release); format: cell-based; conditions: HepG2 cells, 48 hours, 0.1 to 100 μM
Description: This experiment was designed to obtain a preliminary assessment of cytotoxicity.
HepG2 cells were plated in 96-well cell culture plates and allowed to attach overnight at 37° C., 5% CO2 in EMEM+10% FBS. Treatments were made in complete media (EMEM+10% FBS) and included a dilution series of test compounds from 0.1 to 100 μM. Known cytotoxin cerivastatin was used as a positive assay control and prepared at a final concentration of 0.5 μM.
Growth media was replaced with treatment media (EMEM+10% FBS containing test compound dissolved in DMSO) and cells were incubated with test compounds for 48 hours. At the end of the incubation period, supernatant media from each well was transferred to a new plate and LDH assay working solution was added. LDH assay solution undergoes a colorimetric reaction in proportion to the amount of lactate dehydrogenase (an intracellular protein that was only found in the media in the presence of lysed cells) in the media. Color reaction was quantified by measurement of absorbance at a wavelength of 490 nm.
The signal range of the assay was determined by no manipulation in a negative control treatment and full lysis of all cells in a lysis control sample. Compounds that increase the level of cytotoxicity more than 20% above negative control samples were considered cytotoxic in this assay.

[4] = In vitro stability in simulated gastric and intestinal fluids; format: in vitro ADME; conditions: 37° C.; for SGF, compound remaining after 4 hours: simulated gastric fluid pH 1.2, 5 μM; for SGF + Enz, compound remaining after 4 hours: simulated gastric fluid with 3.2 mg/ml pepsin; for SGF + Enz, compound remaining after 4 hours / SIF, compound remaining after 4 hours: 5 μM; for SIF, compound remaining after 4 hours: simulated intestinal fluid pH 6.8 with 10 mg/ml pancreatin
Description: Bioavailability can be estimated by compound stability when exposed to conditions in the body. As an initial assessment of stability properties in a variety of conditions present in animals, exemplary compounds were tested for stability in a battery of simulated body compartments. Compounds were tested for stability in the following solutions: simulated gastric fluid (SGF: 34.2 mM NaCl, pH 1.2), simulated gastric fluid with the digestive enzyme pepsin (SGF+Enzyme: SGF with 3.2 mg/ml pepsin), simulated intestinal fluid with the mixture of enzymes in porcine pancreatin (SIF+Enzyme: 28.7 mM NaH2PO4, 105.7 mM NaCl, pH 6.8, 10 mg/ml pancreatin), rat plasma, and human plasma.
Test compounds were incubated at a final concentration of 5 μM in the above solutions at 37° C. with samples removed at the following time points: 0, 1, 2, and 4 hours. Reactions were stopped and prepared for quantification by addition of excess quench solution containing an internal standard (acetonitrile, 200 ng/mL bucetin). Test compound and internal standard in each sample was quantified by LC-MS/MS, and after internal normalization to bucetin, test compound concentration was expressed as a percentage of concentration at the 0-hour time point. Stability in the relevant test solution was then determined by the percent remaining at the 4-hour time point.

Compound | Potency [1] | Potency [2] | Cytotoxicity [3] | SGF, compound remaining after 4 hours [4] | SGF + Enz, compound remaining after 4 hours [4] | SIF, compound remaining after 4 hours [4]
CCC(C)CN1CC2N(C(=O)c3ccc(C(F)(F)F)cc3)CCC(=O)N2[C@@H](C)C1=O (stereo partly drawn) [Compound 1a] | ++++ (++++ indicates maximum potency at or above 0.1 nM) | ++++ (++++ indicates maximum potency at or above 0.1 nM) | ++++ (++++ indicates non-toxic at 100 μM) | ++++ (++++ indicates 100% compound remaining after 4 hours) | ++++ (++++ indicates 100% compound remaining after 4 hours) | ++++ (++++ indicates 100% compound remaining after 4 hours)
CCC(C)CN1CC2N(C(=O)c3ccc(OC(F)F)cc3)CCC(=O)N2[C@@H](C)C1=O (stereo partly drawn) [Compound 2a] | ++ (++ indicates maximum potency at or above 10 nM) | + (+ indicates maximum potency at or above 100 nM) | ++++ (++++ indicates non-toxic at 100 μM) | ++++ (++++ indicates 100% compound remaining after 4 hours) | +++ (+++ indicates 80-99% compound remaining after 4 hours) | ++++ (++++ indicates 100% compound remaining after 4 hours)
CCC(C)CN1CC2N(Cc3ccc(C(F)(F)F)cc3)CCC(=O)N2[C@@H](C)C1=O (stereo partly drawn) [Compound 5a] | + (+ indicates maximum potency at or above 100 nM) | ++++ (++++ indicates maximum potency at or above 0.1 nM) | ++++ (++++ indicates non-toxic at 100 μM) | +++ (+++ indicates 80-99% compound remaining after 4 hours) | + (+ indicates 20-39% compound remaining after 4 hours) | +++ (+++ indicates 80-99% compound remaining after 4 hours)
CCC(C)CN1CC2N(Cc3ccc(OC(F)F)cc3)CCC(=O)N2[C@@H](C)C1=O (stereo partly drawn) [Compound 6a] | + (+ indicates maximum potency at or above 100 nM) | +++ (+++ indicates maximum potency at or above 1 nM) | ++++ (++++ indicates non-toxic at 100 μM) | +++ (+++ indicates 80-99% compound remaining after 4 hours) | + (+ indicates 20-39% compound remaining after 4 hours) | ++ (++ indicates 40-79% compound remaining after 4 hours)
CCC(C)CN1CC2N(Cc3ccc(O)nc3)CCC(=O)N2[C@@H](C)C1=O (stereo partly drawn) [Compound 7a] | ++ (++ indicates maximum potency at or above 10 nM) | ++ (++ indicates maximum potency at or above 10 nM) | ++++ (++++ indicates non-toxic at 100 μM) | ++++ (++++ indicates 100% compound remaining after 4 hours) | +++ (+++ indicates 80-99% compound remaining after 4 hours) | ++ (++ indicates 40-79% compound remaining after 4 hours)
CCC(C)CN1CC2N(C(=O)c3ccc(O)cc3)CCC(=O)N2[C@@H](C)C1=O (stereo partly drawn) [Compound 8a] | + (+ indicates maximum potency at or above 100 nM) | +++ (+++ indicates maximum potency at or above 1 nM) | ++++ (++++ indicates non-toxic at 100 μM) | ++++ (++++ indicates 100% compound remaining after 4 hours) | +++ (+++ indicates 80-99% compound remaining after 4 hours) | +++ (+++ indicates 80-99% compound remaining after 4 hours)
CCC(C)CN1CC2N(C(=O)c3ccc(F)cc3)CCC(=O)N2C(C)C1=O (stereo not drawn) [Compound 11, 1-(4-fluorobenzoyl)-6-methyl-8-(2-methylbutyl)hexahydro-4H-pyrazino[1,2-a]pyrimidine-4,7(6H)-dione] | +++ (+++ indicates maximum potency at or above 1 nM) | ++ (++ indicates maximum potency at or above 10 nM) | ++++ (++++ indicates non-toxic at 100 μM) | +++ (+++ indicates 80-99% compound remaining after 4 hours) | +++ (+++ indicates 80-99% compound remaining after 4 hours) | ++++ (++++ indicates 100% compound remaining after 4 hours)
CCC(C)CN1CC2N(C(=O)c3ccc(C(F)(F)F)c(Cl)c3)CCC(=O)N2C(C)C1=O (stereo not drawn) [Compound 12, 1-(3-chloro-4-(trifluoromethyl)benzoyl)-6-methyl-8-(2-methylbutyl)hexahydro-4H-pyrazino[1,2-a]pyrimidine-4,7(6H)-dione] | ++ (++ indicates maximum potency at or above 10 nM) | ++ (++ indicates maximum potency at or above 10 nM) | ++++ (++++ indicates non-toxic at 100 μM) | +++ (+++ indicates 80-99% compound remaining after 4 hours) | +++ (+++ indicates 80-99% compound remaining after 4 hours) | ++ (++ indicates 40-79% compound remaining after 4 hours)
CCCCN1CC2N(C(=O)c3ccc(OC(F)F)cc3)CCC(=O)N2C(C)C1=O (stereo not drawn) [Compound 17] | +++ (+++ indicates maximum potency at or above 1 nM) | − | ++++ (++++ indicates non-toxic at 100 μM) | +++ (+++ indicates 80-99% compound remaining after 4 hours) | +++ (+++ indicates 80-99% compound remaining after 4 hours) | +++ (+++ indicates 80-99% compound remaining after 4 hours)
CC1C(=O)N(CCC2CCCC2)CC2N(C(=O)c3ccc(C(F)(F)F)cc3)CCC(=O)N12 (stereo not drawn) [Compound 19] | +++ (+++ indicates maximum potency at or above 1 nM) | +++ (+++ indicates maximum potency at or above 1 nM) | ++++ (++++ indicates non-toxic at 100 μM) | +++ (+++ indicates 80-99% compound remaining after 4 hours) | ++ (++ indicates 40-79% compound remaining after 4 hours) | + (+ indicates 20-39% compound remaining after 4 hours)
CC1C(=O)N(CCC2CCC2)CC2N(C(=O)c3ccc(C(F)(F)F)cc3)CCC(=O)N12 (stereo not drawn) [Compound 20] | + (+ indicates maximum potency at or above 100 nM) | +++ (+++ indicates maximum potency at or above 1 nM) | ++++ (++++ indicates non-toxic at 100 μM) | +++ (+++ indicates 80-99% compound remaining after 4 hours) | +++ (+++ indicates 80-99% compound remaining after 4 hours) | +++ (+++ indicates 80-99% compound remaining after 4 hours)
C=CCCN1CC2N(C(=O)c3ccc(C(F)(F)F)cc3)CCC(=O)N2C(C)C1=O (stereo not drawn) [Compound 22] | +++ (+++ indicates maximum potency at or above 1 nM) | ++ (++ indicates maximum potency at or above 10 nM) | ++++ (++++ indicates non-toxic at 100 μM) | +++ (+++ indicates 80-99% compound remaining after 4 hours) | +++ (+++ indicates 80-99% compound remaining after 4 hours) | +++ (+++ indicates 80-99% compound remaining after 4 hours)
